Measurements: PubChem BioAssay AID1845207 (Molecular Pharmacology Branch, DTP, NCI, 2023)
pIC50: −log10 of the molar value. Values joined by “and” are separate entries in the source; they are usually repeats but may differ in a detail not shown here. Equal entries are not always repeated.

System: NCI-H1876 tumor spheroid viability
Assay: Anticancer human tumor NCI-H1876 cell line growth inhibition;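 also: spheroids exposed to compounds for seven days before the viability read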;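 as to viability, T/C: percent of DMSO vehicle control viability so 100% = vehicle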
Conditions: spheroids with HUVEC and MSC; for pIC50: curve of first compound; for viability, T/C: stronger effect = lower value
Summary of the method: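 Complex spheroids of malignant cells with endothelial cells and mesenchymal stem cells; agents alone or combined, from near clinical Cmax (or 10 microM if unknown) down in half-log steps, 0.25% DMSO final.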

[1] = second compound 1 µM, first compound 0.0316 µM
[2] = second compound 1 µM, first compound 0.1 µM
[3] = second compound 1 µM, first compound 0.316 µM
[4] = second compound 1 µM, first compound 1 µM
[5] = second compound 1 µM, first compound 3.16 µM
[6] = second compound 1 µM, first compound 10 µM
[7] = second compound 3.16 µM, first compound 0.0316 µM
[8] = second compound 3.16 µM, first compound 0.1 µM
[9] = second compound 3.16 µM, first compound 0.316 µM
[10] = second compound 3.16 µM, first compound 1 µM
[11] = second compound 3.16 µM, first compound 3.16 µM
[12] = second compound 3.16 µM, first compound 10 µM
[13] = second compound 10 µM, first compound 0.0316 µM
[14] = second compound 10 µM, first compound 0.1 µM
[15] = second compound 10 µM, first compound 0.316 µM
[16] = second compound 10 µM, first compound 1 µM
[17] = second compound 10 µM, first compound 3.16 µM
[18] = second compound 10 µM, first compound 10 µM
[19] = second compound 31.6 µM, first compound 0.0316 µM
[20] = second compound 31.6 µM, first compound 0.1 µM
[21] = second compound 31.6 µM, first compound 0.316 µM
[22] = second compound 31.6 µM, first compound 1 µM
[23] = second compound 31.6 µM, first compound 3.16 µM
[24] = second compound 31.6 µM, first compound 10 µM
[25] = second compound 100 µM, first compound 0.0316 µM
[26] = second compound 100 µM, first compound 0.1 µM
[27] = second compound 100 µM, first compound 0.316 µM
[28] = second compound 100 µM, first compound 1 µM
[29] = second compound 100 µM, first compound 3.16 µM
[30] = second compound 100 µM, first compound 10 µM

Row | Compound | pIC50 (second compound 1 µM) | pIC50 (second compound 3.16 µM) | pIC50 (second compound 10 µM) | pIC50 (second compound 31.6 µM) | pIC50 (second compound 100 µM) | viability, T/C [1] | viability, T/C [2] | viability, T/C [3] | viability, T/C [4] | viability, T/C [5] | viability, T/C [6] | viability, T/C [7] | viability, T/C [8] | viability, T/C [9] | viability, T/C [10] | viability, T/C [11] | viability, T/C [12] | viability, T/C [13] | viability, T/C [14] | viability, T/C [15] | also measured
1 | Cc1cc(C)c(CNC(=O)c2cc(-c3ccc(CN4CCOCC4)cc3)cc3c2cnn3C2CCCC2)c(=O)[nH]1 + Cn1nnc2c(C(N)=O)ncn2c1=O | 6.15 | 6.06 | 6.26 | 6.12 | 6.70 | 93.8% | 79.2% | 60.2% | 44.8% | 29.3% | 9.14% | 85.7% | 78.6% | 64% | 49.8% | 27.2% | 12.2% | 88.7% | 58.5% | 61.8% | viability, T/C [16]: 46.8%; viability, T/C [17]: 26.6%; viability, T/C [18]: 13.3%; viability, T/C [19]: 53.8%; viability, T/C [20]: 74.6%; viability, T/C [21]: 59.3%; viability, T/C [22]: 44.7%; viability, T/C [23]: 26.3%; viability, T/C [24]: 10.7%; viability, T/C [25]: 58.8%; viability, T/C [26]: 52.3%; viability, T/C [27]: 47%; viability, T/C [28]: 39.8%; viability, T/C [29]: 25.2%; viability, T/C [30]: 8.6%
2 | COc1cc(C)[nH]c(=O)c1CN1CCc2c(Cl)cc(C(OC)C3COC3)c(Cl)c2C1=O (stereo unspecified) + Cn1nnc2c(C(N)=O)ncn2c1=O | < 5.00 | < 5.00 | < 5.00 | < 5.00 | < 5.00 | 112% | 108% | 109% | 90.8% | 92.7% | 70.4% | 117% | 117% | 110% | 102% | 89.9% | 75.4% | 108% | 109% | 107% | viability, T/C [16]: 100%; viability, T/C [17]: 95%; viability, T/C [18]: 79.1%; viability, T/C [19]: 108%; viability, T/C [20]: 107%; viability, T/C [21]: 107%; viability, T/C [22]: 102%; viability, T/C [23]: 86.5%; viability, T/C [24]: 71.3%; viability, T/C [25]: 92.2%; viability, T/C [26]: 91.4%; viability, T/C [27]: 81.2%; viability, T/C [28]: 81.4%; viability, T/C [29]: 81.7%; viability, T/C [30]: 72.3%
3 | CC(C)n1c(=O)n(C)c2cnc3cc(F)c(-c4ccc(OCCCN5CCCCC5)nc4)cc3c21 |  |  |  |  |  |  |  |  |  |  |  |  |  |  |  |  |  |  |  |  | viability, T/C (compound 0.0316 µM): 100% and 85.6% and 104%; viability, T/C (compound 0.1 µM): 98.1% and 49.6% and 104%; viability, T/C (compound 0.316 µM): 103% and 53.3% and 100%; viability, T/C (compound 1 µM): 103% and 47.4% and 104%; viability, T/C (compound 3.16 µM): 107% and 28.5% and 105%; viability, T/C (compound 10 µM): 102% and 11.4% and 93.3%
